pKi: −log10 of the molar value.
How the values were obtained:
Cytochrome P450 2J2 [1] = target: T1, Cytochrome P450 2J2 (Homo sapiens, UniProt P51589); assay: Inhibition of recombinant CYP2J2 (unknown origin) treated with AMG 853; assay type: ADME
T1 sequence (P51589 whole entry): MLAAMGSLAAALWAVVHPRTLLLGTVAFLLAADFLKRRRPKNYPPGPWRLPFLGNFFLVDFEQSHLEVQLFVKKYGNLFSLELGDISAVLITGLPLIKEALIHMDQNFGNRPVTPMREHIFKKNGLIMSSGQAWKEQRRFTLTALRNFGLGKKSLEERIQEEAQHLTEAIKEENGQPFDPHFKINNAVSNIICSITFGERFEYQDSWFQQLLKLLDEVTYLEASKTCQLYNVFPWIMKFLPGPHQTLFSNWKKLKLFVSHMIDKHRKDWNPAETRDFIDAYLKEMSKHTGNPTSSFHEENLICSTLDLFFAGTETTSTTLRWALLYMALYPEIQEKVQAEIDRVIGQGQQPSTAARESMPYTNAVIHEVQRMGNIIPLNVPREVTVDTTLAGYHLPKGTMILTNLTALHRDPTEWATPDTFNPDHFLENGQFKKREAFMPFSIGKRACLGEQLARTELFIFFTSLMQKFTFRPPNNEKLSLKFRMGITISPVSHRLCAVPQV

Cytochrome P450 3A4 [2] = target: T2, Cytochrome P450 3A4 (Homo sapiens, UniProt P08684); assay: Drug metabolism assessed as recombinant CYP3A4 (unknown origin)-mediated compound formation treated with AMG 853 at 10 uM after 30 mins by LC-MS/MS analysis; assay type: ADME; details: recombinant enzyme, 0.5 h
T2 sequence (P08684 whole entry): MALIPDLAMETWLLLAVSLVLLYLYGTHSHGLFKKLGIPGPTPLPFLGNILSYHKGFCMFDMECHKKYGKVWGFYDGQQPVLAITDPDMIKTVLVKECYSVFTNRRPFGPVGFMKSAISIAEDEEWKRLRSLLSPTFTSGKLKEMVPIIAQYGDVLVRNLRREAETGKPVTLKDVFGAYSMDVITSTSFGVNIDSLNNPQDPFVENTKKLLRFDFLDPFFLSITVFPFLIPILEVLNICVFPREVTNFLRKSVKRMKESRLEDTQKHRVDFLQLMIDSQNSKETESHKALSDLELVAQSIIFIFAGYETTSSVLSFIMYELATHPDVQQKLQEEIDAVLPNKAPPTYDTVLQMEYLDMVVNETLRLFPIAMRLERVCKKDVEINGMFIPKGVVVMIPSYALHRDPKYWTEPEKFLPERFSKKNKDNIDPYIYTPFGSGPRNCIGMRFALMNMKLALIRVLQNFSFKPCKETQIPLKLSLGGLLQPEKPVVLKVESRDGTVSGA

Cytochrome P450 3A4 [3] = target: T2, Cytochrome P450 3A4; assay: Drug metabolism assessed as recombinant CYP3A4 (unknown origin)-mediated compound formation measured per nmol protein treated with AMG 853 after 15 mins by LC-MS/MS analysis; assay type: ADME; details: recombinant enzyme, 0.25 h
Cytochrome P450 3A7 [4] = target: T3, Cytochrome P450 3A7 (Homo sapiens, UniProt P24462); assay: Drug metabolism assessed as recombinant CYP3A7 (unknown origin)-mediated compound formation treated with AMG 853 at 10 uM after 30 mins by LC-MS/MS analysis; assay type: ADME; details: recombinant enzyme, 0.5 h
T3 sequence (P24462 whole entry): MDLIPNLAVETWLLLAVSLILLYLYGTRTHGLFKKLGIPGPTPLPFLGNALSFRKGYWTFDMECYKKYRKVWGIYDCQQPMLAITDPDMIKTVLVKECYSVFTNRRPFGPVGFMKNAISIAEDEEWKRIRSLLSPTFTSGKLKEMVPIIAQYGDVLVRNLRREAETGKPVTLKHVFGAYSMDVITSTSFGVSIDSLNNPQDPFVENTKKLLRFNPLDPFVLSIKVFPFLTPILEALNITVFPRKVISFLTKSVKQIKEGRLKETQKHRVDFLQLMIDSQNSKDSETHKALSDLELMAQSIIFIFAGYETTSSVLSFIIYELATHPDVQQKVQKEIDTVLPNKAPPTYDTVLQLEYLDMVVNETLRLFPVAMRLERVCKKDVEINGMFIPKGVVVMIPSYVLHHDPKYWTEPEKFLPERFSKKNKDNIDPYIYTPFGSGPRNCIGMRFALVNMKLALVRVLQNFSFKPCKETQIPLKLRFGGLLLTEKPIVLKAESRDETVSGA

Cytochrome P450 3A7 [5] = target: T3, Cytochrome P450 3A7; assay: Drug metabolism assessed as recombinant CYP3A7 (unknown origin)-mediated compound formation measured per nmol protein treated with AMG 853 after 15 mins by LC-MS/MS analysis; assay type: ADME; details: recombinant enzyme, 0.25 h
Cytochrome P450 2J2 [6] = target: T1, Cytochrome P450 2J2; assay: Drug metabolism assessed as recombinant CYP2J2 (unknown origin)-mediated compound formation measured per nmol protein treated with AMG 853 after 15 mins by LC-MS/MS analysis; assay type: ADME; details: recombinant enzyme, 0.25 h
Cytochrome P450 3A5 [7] = target: T4, Cytochrome P450 3A5 (Homo sapiens, UniProt P20815); assay: Drug metabolism assessed as recombinant CYP3A5 (unknown origin)-mediated compound formation measured per nmol protein treated with AMG 853 after 15 mins by LC-MS/MS analysis; assay type: ADME; details: recombinant enzyme, 0.25 h
T4 sequence (P20815 whole entry): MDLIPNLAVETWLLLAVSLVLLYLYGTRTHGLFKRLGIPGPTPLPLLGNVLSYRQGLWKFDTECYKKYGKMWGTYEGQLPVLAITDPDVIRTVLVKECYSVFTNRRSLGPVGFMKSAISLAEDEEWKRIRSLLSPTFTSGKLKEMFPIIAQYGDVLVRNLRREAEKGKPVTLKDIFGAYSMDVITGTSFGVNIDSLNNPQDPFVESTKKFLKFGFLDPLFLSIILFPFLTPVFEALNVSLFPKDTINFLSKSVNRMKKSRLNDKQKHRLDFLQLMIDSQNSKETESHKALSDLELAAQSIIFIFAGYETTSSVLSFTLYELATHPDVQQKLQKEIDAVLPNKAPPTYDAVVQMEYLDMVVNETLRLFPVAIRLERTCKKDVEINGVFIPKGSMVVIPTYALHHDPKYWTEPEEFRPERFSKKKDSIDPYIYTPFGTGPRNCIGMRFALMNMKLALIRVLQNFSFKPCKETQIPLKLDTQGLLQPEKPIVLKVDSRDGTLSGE

[8] = Drug metabolism in human liver microsomes assessed as CYP3A5*1/*1-mediated compound formation treated with AMG 853 after 15 mins by LC-MS/MS analysis; assay type: ADME; details: 0.25 h
Cytochrome P450 2C8 [9] = target: T5, Cytochrome P450 2C8 (Homo sapiens, UniProt P10632); assay: Drug metabolism assessed as recombinant CYP2C8 (unknown origin)-mediated compound formation measured per nmol protein treated with AMG 853 after 15 mins by LC-MS/MS analysis; assay type: ADME; details: recombinant enzyme, 0.25 h
T5 sequence (P10632 whole entry): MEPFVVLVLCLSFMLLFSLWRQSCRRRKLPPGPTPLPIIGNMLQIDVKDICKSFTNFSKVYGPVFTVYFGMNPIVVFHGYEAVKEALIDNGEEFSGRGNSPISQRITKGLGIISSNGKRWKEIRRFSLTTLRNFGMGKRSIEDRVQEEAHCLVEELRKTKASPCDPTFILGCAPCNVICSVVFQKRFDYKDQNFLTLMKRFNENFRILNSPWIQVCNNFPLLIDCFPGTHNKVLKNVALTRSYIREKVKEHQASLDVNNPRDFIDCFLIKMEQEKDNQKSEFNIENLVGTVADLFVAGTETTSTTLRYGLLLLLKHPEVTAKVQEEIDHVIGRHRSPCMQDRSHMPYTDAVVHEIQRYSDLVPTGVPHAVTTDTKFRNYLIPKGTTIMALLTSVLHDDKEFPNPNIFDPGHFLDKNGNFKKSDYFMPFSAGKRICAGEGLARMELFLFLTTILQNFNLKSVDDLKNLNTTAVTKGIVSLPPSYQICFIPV

Cytochrome P450 2C8 [10] = target: T5, Cytochrome P450 2C8; assay: Inhibition of recombinant CYP2C8 (unknown origin) treated with AMG 853; assay type: ADME
[11] = Drug metabolism in human liver microsomes assessed as […]-mediated compound formation treated with AMG 853 after 15 mins by LC-MS/MS analysis; assay type: ADME; details: 0.25 h
Cytochrome P450 3A5 [12] = target: T4, Cytochrome P450 3A5; assay: Drug metabolism assessed as recombinant CYP3A5 (unknown origin)-mediated compound formation treated with AMG 853 at 10 uM after 30 mins by LC-MS/MS analysis; assay type: ADME; details: recombinant enzyme, 0.5 h
Cytochrome P450 2C8 [13] = target: T5, Cytochrome P450 2C8; assay: Drug metabolism assessed as recombinant CYP2C8 (unknown origin)-mediated compound formation treated with AMG 853 at 10 uM after 30 mins by LC-MS/MS analysis; assay type: ADME; details: recombinant enzyme, 0.5 h
Cytochrome P450 2J2 [14] = target: T1, Cytochrome P450 2J2; assay: Drug metabolism assessed as recombinant CYP2J2 (unknown origin)-mediated compound formation treated with AMG 853 at 10 uM after 30 mins by LC-MS/MS analysis; assay type: ADME; details: recombinant enzyme, 0.5 h
Cytochrome P450 2C19 = Cytochrome P450 2C19 (Homo sapiens, UniProt P33261); assay: Drug metabolism assessed as recombinant CYP2C19 (unknown origin)-mediated compound formation treated with AMG 853 at 10 uM after 30 mins by LC-MS/MS analysis; assay type: ADME; details: recombinant enzyme, 0.5 h
Chain of Cytochrome P450 2C19 (P33261 whole entry): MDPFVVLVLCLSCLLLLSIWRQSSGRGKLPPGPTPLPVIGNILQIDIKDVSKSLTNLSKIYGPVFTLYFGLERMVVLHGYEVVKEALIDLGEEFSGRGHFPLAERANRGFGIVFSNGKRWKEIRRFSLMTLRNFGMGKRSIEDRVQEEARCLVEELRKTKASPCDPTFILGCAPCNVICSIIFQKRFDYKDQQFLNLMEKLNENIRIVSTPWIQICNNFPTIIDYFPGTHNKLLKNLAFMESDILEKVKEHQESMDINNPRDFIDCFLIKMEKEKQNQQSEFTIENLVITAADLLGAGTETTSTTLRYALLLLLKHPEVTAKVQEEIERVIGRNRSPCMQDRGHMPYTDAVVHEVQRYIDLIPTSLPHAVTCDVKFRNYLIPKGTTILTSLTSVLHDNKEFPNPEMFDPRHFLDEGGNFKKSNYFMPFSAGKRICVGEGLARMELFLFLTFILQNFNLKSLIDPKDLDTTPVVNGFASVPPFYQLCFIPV

CYP1A2 = CYP1A2 (Homo sapiens, UniProt P05177); assay: Induction of CYP1A2 in human hepatocytes using phenacetin as substrate at 0.3 to 30 uM treated every 24 hrs for 2 days measured on day 5 by LC-MS/MS analysis relative to control; assay type: ADME, cell-based, Hepatocyte; details: probe phenacetin, read-out: FC
Chain of CYP1A2 (P05177 whole entry): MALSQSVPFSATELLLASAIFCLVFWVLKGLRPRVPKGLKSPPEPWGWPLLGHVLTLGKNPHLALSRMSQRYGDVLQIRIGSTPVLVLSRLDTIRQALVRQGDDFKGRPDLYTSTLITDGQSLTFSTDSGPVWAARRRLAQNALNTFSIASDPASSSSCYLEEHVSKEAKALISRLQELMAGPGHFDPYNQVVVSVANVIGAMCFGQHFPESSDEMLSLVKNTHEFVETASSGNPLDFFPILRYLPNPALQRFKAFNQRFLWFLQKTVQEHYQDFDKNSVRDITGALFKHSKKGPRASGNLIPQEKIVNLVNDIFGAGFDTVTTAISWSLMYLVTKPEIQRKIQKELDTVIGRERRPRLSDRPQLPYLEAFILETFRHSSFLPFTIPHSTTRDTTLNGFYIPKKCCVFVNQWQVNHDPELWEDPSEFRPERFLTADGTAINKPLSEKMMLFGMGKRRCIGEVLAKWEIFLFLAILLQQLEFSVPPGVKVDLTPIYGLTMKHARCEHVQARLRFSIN

CYP2B6 = CYP2B6 (Homo sapiens, UniProt P20813); assay: Induction of CYP2B6 in human hepatocytes using bupropion as substrate at 0.3 to 30 uM treated every 24 hrs for 2 days measured on day 5 by LC-MS/MS analysis relative to control; assay type: ADME, cell-based, Hepatocyte; details: probe bupropion, read-out: FC
Chain of CYP2B6 (P20813 whole entry): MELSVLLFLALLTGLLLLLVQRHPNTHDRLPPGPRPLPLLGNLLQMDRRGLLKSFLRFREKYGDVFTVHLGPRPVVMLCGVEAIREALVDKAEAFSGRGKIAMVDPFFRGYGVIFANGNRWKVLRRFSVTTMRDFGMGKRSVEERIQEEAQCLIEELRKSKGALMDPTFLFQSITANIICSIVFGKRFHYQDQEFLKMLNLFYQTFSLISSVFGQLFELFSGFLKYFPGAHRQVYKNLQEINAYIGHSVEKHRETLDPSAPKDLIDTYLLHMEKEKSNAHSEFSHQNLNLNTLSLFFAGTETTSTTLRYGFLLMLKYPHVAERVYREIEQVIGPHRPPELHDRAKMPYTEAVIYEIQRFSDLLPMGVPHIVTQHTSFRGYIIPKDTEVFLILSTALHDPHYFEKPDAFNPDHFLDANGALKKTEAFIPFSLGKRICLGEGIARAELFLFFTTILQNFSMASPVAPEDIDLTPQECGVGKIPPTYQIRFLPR

Compound | pKi (Cytochrome P450 2J2 [1]) | Drug metabolism (Cytochrome P450 3A4 [2]) | Vmax (Cytochrome P450 3A4 [3]) [nmol/min] | Drug metabolism (Cytochrome P450 3A7 [4]) | Vmax (Cytochrome P450 3A7 [5]) [nmol/min] | Vmax (Cytochrome P450 2J2 [6]) [nmol/min] | Vmax (Cytochrome P450 3A5 [7]) [nmol/min] | Km [8] [µM] | Vmax [8] [nmol/min/mg] | Vmax (Cytochrome P450 2C8 [9]) [nmol/min] | pKi (Cytochrome P450 2C8 [10]) | Km [11] [µM] | Vmax [11] [nmol/min/mg] | Drug metabolism (Cytochrome P450 3A5 [12]) | Drug metabolism (Cytochrome P450 2C8 [13]) | Drug metabolism (Cytochrome P450 2J2 [14]) | Drug metabolism (Cytochrome P450 2C19) | fold induction at 48 h, up to 30 µM (CYP1A2) | fold induction at 48 h, up to 30 µM (CYP2B6)
CC(C)(CO)NC(=O)c1ccc(Oc2cc(F)c(CC(=O)O)cc2Cl)c(NS(=O)(=O)c2ccc(C3CC3)cc2Cl)c1 | 3.62 | metabolite_detected | 0.96 | metabolite_detected | 0.26 | 0.584 | 0.221 | 2.75 | 0.044 | 0.031 | 4.50 | 4.11 | 0.023 | metabolite_detected | metabolite_detected | metabolite_detected | – | – | –
CC(C)(C)NC(=O)c1ccc(Oc2cc(F)c(CC(=O)O)cc2Cl)c(NS(=O)(=O)c2ccc(C3(O)CC3)cc2Cl)c1 | – | metabolite_detected | 1.41 | metabolite_detected | 0.286 | 0.299 | 1.13 | 38.5 | 0.317 | 0.25 | – | 35.2 | 0.296 | metabolite_detected | metabolite_detected | metabolite_detected | metabolite_detected | – | –
COc1ccc2[nH]c([S+]([O-])Cc3ncc(C)c(OC)c3C)nc2c1 (stereo not drawn) [OMEPRAZOLE] | – | – | – | – | – | – | – | – | – | – | – | – | – | – | – | – | – | 47.4 | –
CCC1(c2ccccc2)C(=O)NC(=O)NC1=O [PHENOBARBITAL] | – | – | – | – | – | – | – | – | – | – | – | – | – | – | – | – | – | – | 22.1
